Results taken from patent US7842817B2, “2-amino benzimidazole derivatives and their use as modulators of small-conductance calcium-activated potassium channels” (Neurosearch A/S, priority 2005, dated 2010).
Where a name gives a salt, the structure may show the parent alone.

Structure (SMILES) | melting point
Fc1ccc(CNc2nc3ccccc3n2Cc2ccc(Cl)c(C(F)(F)F)c2)cc1F [Example 9, N-[1-(4-Chloro-3-trifluoromethylbenzyl)benzimidazol-2-yl]-3,4-difluorobenzylamine] | 158 to 161 °C
N=c1n(Cc2cc(F)cc(F)c2)c2ccccc2n1Cc1cc(F)cc(F)c1 [Example 12, 1,3-Bis(3,5-difluorobenzyl)-1,3-dihydrobenzoimidazol-2-ylideneamine] | 144 to 145 °C
N=c1n(Cc2ccc(Cl)c(Cl)c2)c2ccccc2n1Cc1ccc(Cl)c(Cl)c1 [Example 2, 1,3-Bis(3,4-dichlorobenzyl)-1,3-dihydrobenzoimidazol-2-ylideneamine] | 145 to 146 °C
Fc1ccc(CNc2nc3ccccc3n2-c2ccc(F)c(F)c2)cc1F [Example 19, (3,4-Difluorobenzyl)-[1-(3,4-difluorophenyl)-1H-benzoimidazol-2-yl]amine] | 158.5 to 159.5 °C
N=c1n(Cc2ccc(F)c(F)c2)c2ccccc2n1-c1ccc(F)c(F)c1 (as salt: hydrobromid) [Example 13, 1-(3,4-Difluorobenzyl)-3-(3,4-difluorophenyl)-1,3-dihydrobenzoimidazol-2-ylideneamine] | 259 to 260 °C
N=c1n(Cc2ccc(F)c(F)c2)c2ccccc2n1Cc1ccc(F)c(F)c1 [Example 4, 1,3-Bis(3,4-difluorobenzyl)-1,3-dihydrobenzoimidazol-2-ylideneamine] | 114 to 117 °C
N=c1n(Cc2ccc(F)c(F)c2)c2ccc(Br)cc2n1Cc1ccc(F)c(F)c1 [Example 17, 1,3-Bis(3,4-difluorobenzyl)-5-bromo-1,3-dihydrobenzoimidazol-2-ylideneamine] | 88 to 89.5 °C
N=c1n(Cc2ccc(Cl)cc2)c2ccccc2n1Cc1ccc(Cl)cc1 [Example 1, 1,3-Bis(4-chlorobenzyl)-1,3-dihydrobenzoimidazol-2-ylideneamine] | 185 to 187 °C
N=c1n(Cc2cccc(C(F)(F)F)c2)c2ccccc2n1Cc1cccc(C(F)(F)F)c1 [Example 16, 1,3-Bis[3-(trifluoromethyl)benzyl]-1,3-dihydrobenzoimidazol-2-ylideneamine] | 175 to 177 °C
Fc1ccc(Nc2nc3ccccc3n2-c2ccc(F)c(F)c2)cc1F [Example 20, (3,4-Difluorophenyl)-[1-(3,4-difluorophenyl)-1H-benzoimidazol-2-yl]amine] | 115 to 117 °C
Fc1ccc(Cn2c(Nc3ccc(C(F)(F)F)cc3)nc3ccccc32)cc1F [Example 7, N-[1-(3,4-Difluorobenzyl)benzimidazol-2-yl]-4-trifluoromethylaniline] | 167 to 170 °C
Fc1ccc(Cn2c(Nc3ccc(F)c(F)c3)nc3ccccc32)cc1F (as salt: hydrochloride) [Example 5, N-[1-(3,4-Difluorobenzyl)benzimidazol-2-yl]-3,4-difluoroaniline] | 236 to 238 °C
N=c1n(Cc2ccc(F)cc2)c2ccccc2n1Cc1ccc(F)cc1 [Example 3, 1,3-Bis(4-fluorobenzyl)-1,3-dihydrobenzoimidazol-2-ylideneamine] | 148 to 150 °C
FC(F)(F)c1cc(Cn2c(Nc3ccc(Cl)c(C(F)(F)F)c3)nc3ccccc32)ccc1Cl [Example 8, N-[1-(4-Chloro-3-trifluoromethylbenzyl)benzimidazol-2-yl]-4-chloro-3-trifluoromethylaniline] | 88 to 92 °C
N=c1n(Cc2ccc(F)c(F)c2)c2ccc(F)cc2n1Cc1ccc(F)c(F)c1 [Example 15, 1,3-Bis(3,4-difluorobenzyl)-5-fluoro-1,3-dihydrobenzoimidazol-2-ylideneamine] | > 166 °C (dec.)
